In ChEMBL document CHEMBL1201862, “PubChem BioAssay data set” (2004):
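In this assay, cells in 96-well plates receive the compound at five concentrations for 48 hours. Endpoints are linearly interpolated between the surrounding concentrations. The concentration for 50% growth inhibition is given as GI50.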 The source made the active and inactive calls. No stated cut-off is given here; in the data, active = GI50 up to about 1.1 µM and inactive = higher.

Tests used:
Test in all cases: NCI tumour cell line growth inhibition, 48 h
[1] = tested on: 786-0
[2] = tested on: CCRF-CEM
[3] = tested on: COLO 205
[4] = tested on: EKVX
[5] = tested on: HOP-62
[6] = tested on: K562
[7] = tested on: MDA-N
[8] = tested on: Malme-3M
[9] = tested on: NCI-H226
[10] = tested on: NCI-H460
[11] = tested on: NCI/ADR-RES
[12] = tested on: OVCAR-5
[13] = tested on: RPMI-8226
[14] = tested on: SF-295
[15] = tested on: SF-539
[16] = tested on: SK-MEL-2
[17] = tested on: SN12C
[18] = tested on: SNB-19
[19] = tested on: UACC-62
[20] = tested on: UO-31

Compound | GI50 [1] | GI50 [2] | GI50 [3] | GI50 [4] | GI50 [5] | GI50 [6] | GI50 [7] | GI50 [8] | GI50 [9] | GI50 [10] | GI50 [11] | GI50 [12] | GI50 [13] | GI50 [14] | GI50 [15] | GI50 [16] | GI50 [17] | GI50 [18] | GI50 [19] | GI50 [20]
Cc1ncc([N+](=O)[O-])n1CCNC(=O)CCCn1cnc([N+](=O)[O-])n1 | > 100 µM (inactive) | > 100 µM (inactive) | > 100 µM (inactive) | > 31.6 µM (inactive) | > 100 µM (inactive) | > 100 µM (inactive) | > 100 µM (inactive) | > 100 µM (inactive) | > 100 µM (inactive) | > 100 µM (inactive) | > 100 µM (inactive) | > 100 µM (inactive) | > 100 µM (inactive) | > 100 µM (inactive) | > 100 µM (inactive) | > 90.8 µM (inactive) | > 41.8 µM (inactive) | > 100 µM (inactive) | > 100 µM (inactive) | > 100 µM (inactive)
O=c1[nH]c2cc([N+](=O)[O-])c(N/N=C/c3ccc(Cl)cc3Cl)c([N+](=O)[O-])c2[nH]1 | 32.1 µM (inactive) | 23.8 µM (inactive) | > 100 µM (inactive) | > 100 µM (inactive) | 59.6 µM (inactive) | 43.6 µM (inactive) | 7.48 µM (inactive) | 31.2 µM (inactive) | 58.3 µM (inactive) | 83 µM (inactive) | 15.5 µM (inactive) | 70 µM (inactive) | 33.8 µM (inactive) | > 100 µM (inactive) | > 100 µM (inactive) | > 100 µM (inactive) | 37.5 µM (inactive) | 64 µM (inactive) | > 100 µM (inactive) | 41.6 µM (inactive)
CCOC(=O)Nc1ccc2c(c1)c(CCCCCCc1nc3ccccc3c3ccc(NC(=O)OCC)cc13)nc1ccccc12 | 18.4 µM (inactive) | > 100 µM (inactive) | > 100 µM (inactive) | < 0.01 µM (active) | 27.7 µM (inactive) | 80 µM (inactive) | 61.2 µM (inactive) | > 10 µM (inactive) | 23.9 µM (inactive) | 61.9 µM (inactive) | 41.2 µM (inactive) | > 100 µM (inactive) | > 100 µM (inactive) | 49.5 µM (inactive) | 12.5 µM (inactive) | 29.9 µM (inactive) | 40.6 µM (inactive) | 30.1 µM (inactive) | > 100 µM (inactive) | 68.4 µM (inactive)
Cc1ccc2[nH]c(=N/c3ccccc3C)/c(=N\c3ccccc3C)[nH]c2c1 | 30 µM (inactive) | > 46.8 µM (inactive) | 16.1 µM (inactive) | 24.5 µM (inactive) | 40.2 µM (inactive) | 23.8 µM (inactive) | 25.5 µM (inactive) | 22.2 µM (inactive) | 29.2 µM (inactive) | 17.3 µM (inactive) | 30 µM (inactive) | 21.5 µM (inactive) | > 100 µM (inactive) | 21.4 µM (inactive) | 37.2 µM (inactive) | 12.7 µM (inactive) | 32.7 µM (inactive) | 46.8 µM (inactive) | 26.3 µM (inactive) | 19.4 µM (inactive)
CC1=NN(c2ccc(C)cc2)C2(C1)SCC(=O)N2c1nc2ccccc2s1 (configuration not stated) | 20.1 µM (inactive) | 5.22 µM (inactive) | 22.7 µM (inactive) | 21.9 µM (inactive) | 16.9 µM (inactive) | 24.2 µM (inactive) | 20.7 µM (inactive) | 23.5 µM (inactive) | 11.3 µM (inactive) | 13.4 µM (inactive) | 16.2 µM (inactive) | 37.2 µM (inactive) | 17.7 µM (inactive) | 13 µM (inactive) | 19 µM (inactive) | 21.6 µM (inactive) | 11.2 µM (inactive) | 33.1 µM (inactive) | 14.3 µM (inactive) | 22.9 µM (inactive)
Cc1nc(-c2cc3c(ccc4ccccc43)oc2=O)cs1 | 39.1 µM (inactive) | > 100 µM (inactive) | > 100 µM (inactive) | 35.8 µM (inactive) | 35.7 µM (inactive) | > 100 µM (inactive) | > 100 µM (inactive) | 76.2 µM (inactive) | 66.4 µM (inactive) | 91.8 µM (inactive) | 48.3 µM (inactive) | > 100 µM (inactive) | > 100 µM (inactive) | 41.8 µM (inactive) | 43.3 µM (inactive) | > 100 µM (inactive) | > 100 µM (inactive) | 33.2 µM (inactive) | 26 µM (inactive) | 46.3 µM (inactive)
COc1cc(S(=O)(=O)Nc2ccc(-c3csc(N4C(=O)C(Cl)C4c4cccc(Oc5ccccc5)c4)n3)cc2)ccc1Cl (configuration not stated) | 13.7 µM (inactive) | 3.31 µM (inactive) | 21.5 µM (inactive) | 20.7 µM (inactive) | 38.3 µM (inactive) | 27.9 µM (inactive) | 22.3 µM (inactive) | > 100 µM (inactive) | 18.8 µM (inactive) | > 100 µM (inactive) | > 100 µM (inactive) | 38.5 µM (inactive) | 19.7 µM (inactive) | > 100 µM (inactive) | 16.1 µM (inactive) | 31 µM (inactive) | 15.5 µM (inactive) | > 100 µM (inactive) | 24.5 µM (inactive) | 21.2 µM (inactive)
CC(CCOc1ccc2ccc(=O)oc2c1)C1=CC(=O)C(C)(C)O1 (configuration not stated) | 2.2 µM (inactive) | 0.499 µM (active) | 2.42 µM (inactive) | 2.68 µM (inactive) | 5.12 µM (inactive) |  | 2.77 µM (inactive) | 3.04 µM (inactive) | 7.35 µM (inactive) | 1.86 µM (inactive) | 2.12 µM (inactive) | 9.27 µM (inactive) | 1.95 µM (inactive) | 3.94 µM (inactive) | 1.69 µM (inactive) | 3.37 µM (inactive) | 1.67 µM (inactive) | 3.09 µM (inactive) | 3.72 µM (inactive) | 3.05 µM (inactive)
OC(CC(O)(C(F)(F)Cl)C(F)(F)Cl)c1ccccc1 (configuration not stated) | < 0.001 µM (active) | > 10 µM (inactive) | > 10 µM (inactive) | > 10 µM (inactive) | > 10 µM (inactive) | > 10 µM (inactive) | > 10 µM (inactive) | > 10 µM (inactive) | > 10 µM (inactive) | > 10 µM (inactive) | > 10 µM (inactive) | > 10 µM (inactive) | > 10 µM (inactive) | > 10 µM (inactive) | > 10 µM (inactive) | > 10 µM (inactive) | > 10 µM (inactive) | > 10 µM (inactive) | > 10 µM (inactive) | 
CCN(CC)CCCNc1nncc2cc3c([nH]c4ccccc43)c(C)c12 | 5.53 µM (inactive) | 4.1 µM (inactive) | 8.75 µM (inactive) | 8.38 µM (inactive) | 12.9 µM (inactive) | 7.03 µM (inactive) | 16.4 µM (inactive) | 17.6 µM (inactive) | 11.5 µM (inactive) | 5.6 µM (inactive) | 48.9 µM (inactive) | 14.4 µM (inactive) | 12 µM (inactive) | 16 µM (inactive) | 16 µM (inactive) | 36.4 µM (inactive) | 6.24 µM (inactive) | 12.4 µM (inactive) | 15.7 µM (inactive) | 12.1 µM (inactive)
S=C(N/N=C(\c1ccccc1)c1ccccn1)NC1CCCCC1 | 18 µM (inactive) | 0.322 µM (active) | 0.543 µM (active) | 1.4 µM (inactive) | 12.2 µM (inactive) | 0.5 µM (active) | 78.7 µM (inactive) | 1.32 µM (inactive) | 3.85 µM (inactive) | 3.36 µM (inactive) | 0.423 µM (active) | > 88.1 µM (inactive) | 2.16 µM (inactive) | 26.5 µM (inactive) | 3.08 µM (inactive) | > 94.6 µM (inactive) | 0.804 µM (active) | 39.7 µM (inactive) | > 29.8 µM (inactive) | 12.9 µM (inactive)
CC(C)C(C)/C=C\C(C)C1CCC2C3=CC=C4CC(O)CCC4(C)C3CCC21C (configuration not stated) | > 43.2 µM (inactive) | 19.8 µM (inactive) | 43.9 µM (inactive) | > 39.4 µM (inactive) | > 51.1 µM (inactive) | 26.5 µM (inactive) | > 46.2 µM (inactive) | > 34.7 µM (inactive) | > 38 µM (inactive) | > 36.1 µM (inactive) | > 41.3 µM (inactive) | > 100 µM (inactive) | 29.3 µM (inactive) | > 64.9 µM (inactive) | > 44.6 µM (inactive) | > 62.1 µM (inactive) | > 42.1 µM (inactive) | > 74.5 µM (inactive) | > 44.6 µM (inactive) | > 48.3 µM (inactive)
COc1cc([C@@H]2c3cc4c(cc3[C@@H](Nc3ccc(/N=C\c5ccc(C(=O)O[C@@H](C(=O)O[C@H]6C[C@@]7(O)[C@@H](OC(=O)c8ccccc8)[C@@H]8[C@]9(OC(C)=O)CO[C@@H]9C[C@H](O)[C@@]8(C)C(=O)[C@H](OC(C)=O)C(=C6C)C7(C)C)[C@@H](NC(=O)c6ccccc6)c6ccccc6)cc5)cc3)[C@H]3COC(=O)[C@H]23)OCO4)cc(OC)c1O | 2.63 µM (inactive) | 0.544 µM (active) | 1.39 µM (inactive) | 16.3 µM (inactive) | 2.93 µM (inactive) | 2.28 µM (inactive) | 9.33 µM (inactive) | > 50 µM (inactive) | 1.57 µM (inactive) | 0.113 µM (active) | > 45.8 µM (inactive) | 20.2 µM (inactive) | 2.59 µM (inactive) | 1.99 µM (inactive) | 1.47 µM (inactive) | > 33.7 µM (inactive) | 2.88 µM (inactive) | 2.48 µM (inactive) | 4.26 µM (inactive) | 
